The term IC50 denotes the midpoint of a concentration-inhibition curve. Low values mean higher potency, high ones lower potency.

Here are results for 11 compounds from US20250313553A1, “ANNULATED 2-AMINO-3-CYANO THIOPHENES AND DERIVATIVES FOR THE TREATMENT OF CANCER” (Boehringer Ingelheim Int'l GmbH Corp., priority 2021, published 2025).

One series has as its target KRAS G12D Ba/F3 cells (Homo sapiens, UniProt P01116, G12D, cells depend on it). Briefly: Ba/F3 proliferation assay, KRAS G12D. The format is cell-based. The note with it: 72 h, AlamarBlue, read-out: KRAS G12D Ba/F3 IC50. The protocol:
(§1) To generate KRASG12-dependent Ba/F3 models, Ba/F3 cells are transduced with retroviruses containing vectors that harbor KRASG12 isoforms. Platinum-E cells (Cell Biolabs) are used for retrovirus packaging. Retrovirus is added to Ba/F3 cells. To ensure infection, 4 μg/mL polybrene is added and cells are spinfected. […] Cells with an infection efficiency of 10% to 20% are further cultivated and puromycin selection with 1 μg/mL is initiated. As a control, parental Ba/F3 cells are used to show selection status. Selection is considered successful when parental Ba/F3 cells cultures died. To evaluate the transforming potential of KRASG12 mutations, the growth medium is no longer supplemented with IL-3. Ba/F3 cells harboring the empty vector are used as a control. Approximately ten days before conducting the experiments, puromycin is left out.
(§2) All treatments are performed in technical duplicates. […] AlamarBlue™ (ThermoFisher), a viability stain, is added and fluorescence measured in the PerkinElmer Envision HTS Multilabel Reader. The raw data are imported into and analyzed with the Boehringer Ingelheim proprietary software MegaLab (curve fitting based on the program PRISM, GraphPad Inc.).
(The colour change of resazurin is a common sign of viable cells or microbes.)

Series [1] is described as follows: Metabolic (microsomal) stability assay, HLM. It counts as in vitro ADME. The settings on record: human liver microsomes, 1 μM, predicted clearance as percent of liver blood flow. The method, then:
The metabolic degradation of the test compound is assayed at 37° C. with pooled liver microsomes (mouse (MLM), rat (RLM) or human (HLM)). The final incubation volume of 48 μL per time point contains TRIS buffer (pH 7.5; 0.1 M), magnesium chloride (6.5 mM), microsomal protein (0.5 mg/mL for mouse/rat, 1 mg/mL for human specimens) and the test compound at a final concentration of 1 μM. Following a short preincubation period at 37° C., the reactions are initiated by addition of 12 μL beta-nicotinamide adenine dinucleotide phosphate, reduced form (NADPH, 10 mM) and terminated by transferring an aliquot into solvent after different time points (0, 5, 15, 30, 60 min). Additionally, the NADPH-independent degradation is monitored in incubations without NADPH, terminated at the last time point by addition of acetonitrile. The quenched incubations are pelleted by centrifugation (4,000 rpm, 15 min). An aliquot of the supernatant is assayed by LC-MS/MS to quantify the concentration of parent compound in the individual samples.
In vitro intrinsic clearance (CLint, in vitro) is calculated from the time course of the disappearance of the test drug during the microsomal incubation. Each plot is fitted to the first-order elimination rate constant as C(t)=C0*exp(−ke*t), where C(t) and C0 are the concentration of unchanged test drug at incubation time t and that at preincubation and ke is the disappearance rate constant of the unchanged drug. Subsequently, CLint, in vitro (μL min^−1·amount protein) values are converted to predicted CLint, in vivo (mL min^−1·kg^−1) from incubation parameters according to the equation CLint, in vivo=CLint, in vitro×(incubation volume (ml)/amount protein (mg))×(amount protein (mg)/g liver tissue)×(liver weight/body wt.). For better across species comparison the predicted clearance is expressed as percent of the liver blood flow [% QH](mL min^−1·kg^−1) in the individual species. In general, high stability (corresponding to low % QH) of the compounds across species is desired.

Another series addresses KRAS G12C Ba/F3 cells (Homo sapiens, UniProt P01116, G12C, cells depend on it). As to the kind of experiment: Ba/F3 proliferation assay, KRAS G12C. It counts as cell-based. The note with it: 72 h, AlamarBlue, read-out: KRAS G12C Ba/F3 IC50. The protocol:
as §1, §2

For another series, the target named is T1, KRAS (G12C) and SOS1 (Homo sapiens, UniProt P01116, C118S/C51S/C80L/G12C).
T1 construct: KRAS (G12C) 1-169, N-terminal 6His-tag for purification; 6His (N, cleaved yes)
As to the kind of experiment: KRAS::SOS1 AlphaScreen binding assay, KRAS G12C. The method, then:
Low IC50 values in this assay setting are indicative of strong inhibition of protein-protein interaction between SOS1 and KRAS:
These assays measure the inhibitory effect of compounds on KRAS mutant protein-protein interactions using the Alpha Screen technology by Perkin Elmer.
For the chosen highest assay concentration of 100 μM, 150 nL of compound solution are transferred from a 10 mM DMSO compound stock solution. A series of eleven fivefold dilutions per compound are transferred to the assay plate, compound dilutions are tested in duplicates. DMSO are added as backfill to a total volume of 150 nL.
The assays run on a fully automated robotic system in a darkened room below 100 Lux. To 150 nl of compound dilution 10 μl of a mix including KRAS mutant protein, SOS1 (final assay concentrations see above) and GDP nucleotide (Sigma G7127; final assay concentration 10 μM) in assay buffer (1×PBS, 0.1% BSA, 0.05% Tween 20) are added into columns 1-24. After 30 minutes incubation time 5 μl of Alpha Screen bead mix in assay buffer are added into columns 1-23.
Plates are kept at room temperature in a darkened incubator. After an additional 60 minutes incubation time the signal is measured in a PerkinElmer Envision HTS Multilabel Reader using the AlphaScreen specs from PerkinElmer.
IC50 values are calculated and analyzed with Boehringer Ingelheim's MEGALAB IC50 application using a 4 parametric logistic model.
Background: Bead proximity is the source of the signal in Alpha formats.

The next series in a line: Caco-2 assay. The format is in vitro ADME. The settings on record: human; for Papp A→B at 90 min, 10 μM: Caco-2, pH 7.4, apical to basolateral, read-out: Caco PappAB; for efflux ratio at 90 min, 10 μM: Caco-2, pH 7.4, efflux ratio PappBA/PappAB, read-out: Caco ER. The method, then:
The assay provides information on the potential of a compound to pass the cell membrane, on the extent of oral absorption as well as on whether the compound is actively transported by uptake and/or efflux transporters. Permeability measurements across polarized, confluent Caco-2 cell monolayers grown on permeable filter supports (Corning, catalog #3391) are used. […] The receiver and donor compartments contain 0.25% bovine serum albumine (BSA) in assay buffer. […] After a pre-incubation of 25-30 min at 37° C., at predefined time points (0, 30, 60 and 90 min), samples were taken from the receiver and donor compartment, respectively. Concentrations of test compounds in samples were measured by HPLC/MS/MS, samples from the donor compartment were diluted 1:50 (v:v) with assay buffer, samples from receiver compartment were measured without dilution.
Apparent permeabilities in a-b (PappAB) and b-a (PappBA) directions are calculated according to the formula:
[formula] • Vrec [mL]: buffer volume in receiver compartment • Cdon [μmol/mL]: concentration of test compound in donor compartment at t=0 • ΔCrec: difference between concentrations of test compound in receiver compartment at start and end of incubation time • Δt: Incubation time • Vrec·ΔCrec/Δt [μmol/min]: Amount of compound transferred to receiver compartment per time • A [cm^2]: filter surface
Caco-2 efflux ratios (ER) are calculated as the ratio of PappBA/PappAB.
(Caco-2 cells form a polarised layer with tight junctions and transporters.)

Chain of KRAS G12C Ba/F3 cells (P01116 whole entry G12C): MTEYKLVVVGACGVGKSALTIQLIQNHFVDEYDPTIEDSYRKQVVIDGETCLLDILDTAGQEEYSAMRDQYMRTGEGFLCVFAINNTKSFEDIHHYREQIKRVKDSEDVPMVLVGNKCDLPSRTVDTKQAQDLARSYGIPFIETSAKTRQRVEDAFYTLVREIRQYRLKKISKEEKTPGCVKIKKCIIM
T1 sequence (P01116 1-169 isoform P01116-2 G12C/C51S/C80L/C118S): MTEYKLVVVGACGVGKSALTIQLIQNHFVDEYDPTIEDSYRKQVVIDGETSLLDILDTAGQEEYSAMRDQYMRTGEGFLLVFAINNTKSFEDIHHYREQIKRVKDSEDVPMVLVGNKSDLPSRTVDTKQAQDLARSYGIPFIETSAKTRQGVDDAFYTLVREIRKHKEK
Chain of KRAS G12D Ba/F3 cells (P01116 whole entry G12D, canonical isoform): as the sequence (P01116 whole entry G12C) above, with C12D counted along it

`C[C@H]1CN(C)CCN1c1cccc(-c2noc([C@@]3(C)CCCc4sc(N)c(C#N)c43)n2)n1` [Example V-1]: the GI50 on KRAS G12D Ba/F3 cells worked out at 0.961 µM. Moreover, the “HLM QH” value in series [1] is listed as 93%. In addition, the GI50 at KRAS G12C Ba/F3 cells was 1.27 µM. Also, the IC50 on KRAS (G12C) and SOS1 was 0.031 µM. Moreover, in the series “Caco-2 assay”, the Papp A→B at 90 min, 10 μM was determined as 256 nm/s and the efflux ratio at 90 min, 10 μM came out at 0.7.
Turning to `COCCCN1CCCN(c2nccc(-c3noc([C@@]4(C)CCCc5sc(N)c(C#N)c54)n3)n2)[C@@H](C)C1` [Example V-2], the GI50 at KRAS G12D Ba/F3 cells stood at 0.256 µM. In series [1], the “HLM QH” value was over 95%. Moreover, the GI50 on KRAS G12C Ba/F3 cells was 0.371 µM. The same compound yielded a half-inhibitory concentration (IC50) on KRAS (G12C) and SOS1 of 0.006 µM. For the same compound, in the series “Caco-2 assay”, the Papp A→B at 90 min, 10 μM is 264 nm/s and the efflux ratio at 90 min, 10 μM worked out at 1.5.
Regarding `C[C@H]1CNCCN1c1nccc(-c2noc([C@@]3(C)CCCc4sc(N)c(C#N)c43)n2)n1` [Example V-4], the GI50 on KRAS G12D Ba/F3 cells was found to be 0.823 µM; on KRAS G12C Ba/F3 cells, 0.831 µM. Moreover, the “HLM QH” value in series [1] was 83%. For the same compound, at KRAS (G12C) and SOS1, the IC50 came to 0.023 µM. For the same compound, in the series “Caco-2 assay”, the Papp A→B at 90 min, 10 μM is 50 nm/s. Moreover, the efflux ratio at 90 min, 10 μM in “Caco-2 assay” came out at 9.8.
As for `C[C@H]1CN(C)CCCN1c1nccc(-c2noc([C@@]3(C)CCCc4sc(N)c(C#N)c43)n2)n1` [Example V-5], on KRAS G12D Ba/F3 cells, the GI50 turned out to be 0.293 µM. For the same compound, the “HLM QH” value in series [1] is recorded as 94%. The GI50 on KRAS G12C Ba/F3 cells is 0.493 µM. At KRAS (G12C) and SOS1, this compound showed an IC50 of 0.008 µM. Also, in the series “Caco-2 assay”, the Papp A→B at 90 min, 10 μM stood at 214 nm/s and the efflux ratio at 90 min, 10 μM stood at 1.7.
`C[C@H]1CNCCCN1c1nccc(-c2noc([C@@]3(C)CCCc4sc(N)c(C#N)c43)n2)n1` [Example V-6]: the GI50 at KRAS G12D Ba/F3 cells stood at 0.801 µM. The “HLM QH” value in series [1] is 77%. Also, the GI50 on KRAS G12C Ba/F3 cells worked out at 0.811 µM. For the same compound, the IC50 at KRAS (G12C) and SOS1 was 0.015 µM. Besides, in the series “Caco-2 assay”, the Papp A→B at 90 min, 10 μM turned out to be 12 nm/s and the efflux ratio at 90 min, 10 μM is 19.
As for `C[C@H]1CN(C)CCN1c1nccc(-c2noc([C@@]3(C)CCCc4sc(N)c(C#N)c43)n2)n1` [Example V-7], the GI50 on KRAS G12D Ba/F3 cells came out at 1.09 µM. Also, the “HLM QH” value in series [1] is 95%. In addition, the GI50 at KRAS G12C Ba/F3 cells came out at 1.24 µM. At KRAS (G12C) and SOS1, this compound had an IC50 of 0.022 µM. In “Caco-2 assay”, the Papp A→B at 90 min, 10 μM is 322 nm/s and the efflux ratio at 90 min, 10 μM is 0.7.
In the case of `C[C@H](Oc1cccc(-c2noc([C@@]3(C)CCCc4sc(N)c(C#N)c43)n2)n1)[C@@H]1CCCN1C` [Example V-8], the GI50 on KRAS G12D Ba/F3 cells was 0.39 µM; on KRAS G12C Ba/F3 cells it was 0.481 µM. Besides, the “HLM QH” value in series [1] is on record as over 88%. The IC50 on KRAS (G12C) and SOS1 came to 0.009 µM. Besides, the Papp A→B at 90 min, 10 μM in the series “Caco-2 assay” stood at 209 nm/s. Also, in the series “Caco-2 assay”, the efflux ratio at 90 min, 10 μM stood at 1.3.
Take `CC(C)N1CCCN(c2nccc(-c3noc([C@@]4(C)CCCc5sc(N)c(C#N)c54)n3)n2)[C@@H](C)C1` [Example V-9]: the GI50 on KRAS G12D Ba/F3 cells was 0.051 µM. Moreover, in series [1], the “HLM QH” value is over 88%. Besides, the GI50 at KRAS G12C Ba/F3 cells came out at 0.064 µM. On KRAS (G12C) and SOS1, this compound yielded an IC50 of 0.005 µM. Also, in “Caco-2 assay”, the Papp A→B at 90 min, 10 μM turned out to be 270 nm/s and the efflux ratio at 90 min, 10 μM was 0.9.
As for `C[C@H](Oc1nccc(-c2noc([C@@]3(C)CCCc4sc(N)c(C#N)c43)n2)n1)[C@@H]1CCCN1C` [Example V-10], the figures for the GI50 on KRAS G12D Ba/F3 cells and at KRAS G12C Ba/F3 cells were 0.214 µM and 0.291 µM, respectively. Besides, in series [1], the “HLM QH” value was 87%. In addition, at KRAS (G12C) and SOS1, the IC50 turned out to be 0.007 µM. Besides, the Papp A→B at 90 min, 10 μM in the series “Caco-2 assay” amounted to 113 nm/s. In addition, the efflux ratio at 90 min, 10 μM in the series “Caco-2 assay” came out at 3.2.
Consider `C[C@H](Oc1ccnc(-c2noc([C@@]3(C)CCCc4sc(N)c(C#N)c43)n2)n1)[C@@H]1CCCN1C` [Example V-11], for which, in series [1], the “HLM QH” value is reported as 81%. Also, the Papp A→B at 90 min, 10 μM in the series “Caco-2 assay” came out at 130 nm/s.
With `C[C@H]1CN(C)CCN1c1nccc(-c2cc([C@@]3(C)CCCc4sc(N)c(C#N)c43)on2)n1` [Example V-27], the results for the GI50 on KRAS G12D Ba/F3 cells and on KRAS G12C Ba/F3 cells were 0.525 µM and 1.43 µM, respectively. Moreover, the “HLM QH” value in series [1] is over 88%. The compound also yielded an IC50 at KRAS (G12C) and SOS1 of 0.024 µM. Besides, the Papp A→B at 90 min, 10 μM in “Caco-2 assay” was determined as 140 nm/s. Further, the efflux ratio at 90 min, 10 μM in “Caco-2 assay” stood at 0.5.
